{
  "source": "paper PMC2806030",
  "about": "“Inhibition of mammalian S6 kinase by resveratrol suppresses autophagy” (Aging (Albany NY), 2009)",
  "assay_in_all_cases": "biochemical",
  "parameters_in_all_cases": "Upstate KinaseProfiler in vitro kinase activity assay, per cent of DMSO control",
  "details_in_all_cases": "read-out: Activity (% of Control)",
  "key": {"ALK4(h)": {"target": "T1, ALK4(h) (Homo sapiens, UniProt P36896)", "T1 construct": "gene ACVR1B", "procedure,_shortened": "(§1)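 Profiling done with Upstate KinaseProfiler service across 100 kinases, resveratrol tested at 20 μM; activity expressed relative to control.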"}, "CDK2/cyclinA(h)": {"target": "CDK2/cyclinA(h) (Homo sapiens, UniProt P24941)", "procedure,_shortened": "as §1"}, "CDK6/cyclinD3(h)": {"target": "CDK6/cyclinD3(h) (Homo sapiens, UniProt Q00534)", "procedure,_shortened": "as §1"}, "EGFR(h)": {"target": "EGFR(h) (Homo sapiens, UniProt P00533)", "procedure,_shortened": "as §1"}, "Flt1(h)": {"target": "Flt1(h) (Homo sapiens, UniProt P17948)", "procedure,_shortened": "as §1"}, "JNK1α1(h)": {"target": "T2, JNK1α1(h) (Homo sapiens, UniProt P45983)", "T2 construct": "gene MAPK8; isoform alpha1", "procedure,_shortened": "as §1"}, "MEK1(h)": {"target": "T3, MEK1(h) (Homo sapiens, UniProt Q02750)", "T3 construct": "gene MAP2K1", "T3 sequence (Q02750 whole entry)": "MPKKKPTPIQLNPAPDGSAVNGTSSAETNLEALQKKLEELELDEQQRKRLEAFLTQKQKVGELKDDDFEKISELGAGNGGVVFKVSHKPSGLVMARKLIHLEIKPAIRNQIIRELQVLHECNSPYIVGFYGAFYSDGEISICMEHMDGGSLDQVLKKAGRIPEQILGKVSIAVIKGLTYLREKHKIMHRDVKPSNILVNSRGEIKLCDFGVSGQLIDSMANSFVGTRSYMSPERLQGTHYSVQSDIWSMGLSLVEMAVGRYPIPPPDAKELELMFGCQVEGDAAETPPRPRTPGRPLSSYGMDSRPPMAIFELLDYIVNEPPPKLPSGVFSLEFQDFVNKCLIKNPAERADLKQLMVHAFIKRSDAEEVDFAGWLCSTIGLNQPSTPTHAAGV", "procedure,_shortened": "as §1"}, "MSK2(h)": {"target": "T4, MSK2(h) (Homo sapiens, UniProt O75676)", "T4 construct": "gene RPS6KA4", "T4 sequence (O75676 whole entry)": "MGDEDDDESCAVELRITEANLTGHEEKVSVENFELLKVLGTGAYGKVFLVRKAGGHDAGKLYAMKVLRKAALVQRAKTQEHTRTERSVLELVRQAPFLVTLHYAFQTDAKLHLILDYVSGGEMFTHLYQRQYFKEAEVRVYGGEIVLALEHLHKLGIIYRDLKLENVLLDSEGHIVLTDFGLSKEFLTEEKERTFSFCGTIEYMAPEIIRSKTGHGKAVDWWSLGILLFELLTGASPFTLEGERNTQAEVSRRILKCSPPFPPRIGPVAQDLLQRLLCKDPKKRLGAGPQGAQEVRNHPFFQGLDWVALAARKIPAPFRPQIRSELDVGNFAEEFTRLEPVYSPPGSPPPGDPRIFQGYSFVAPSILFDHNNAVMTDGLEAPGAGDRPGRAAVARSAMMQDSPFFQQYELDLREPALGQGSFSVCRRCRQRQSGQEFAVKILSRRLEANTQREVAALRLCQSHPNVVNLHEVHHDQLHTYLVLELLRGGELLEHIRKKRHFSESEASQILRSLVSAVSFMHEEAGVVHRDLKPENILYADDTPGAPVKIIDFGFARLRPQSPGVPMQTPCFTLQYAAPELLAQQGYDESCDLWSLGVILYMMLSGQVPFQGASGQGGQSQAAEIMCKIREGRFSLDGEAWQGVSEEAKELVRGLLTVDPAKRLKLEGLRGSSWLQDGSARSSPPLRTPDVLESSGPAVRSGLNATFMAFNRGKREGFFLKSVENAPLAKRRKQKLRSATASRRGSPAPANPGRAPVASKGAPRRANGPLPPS", "procedure,_shortened": "as §1"}, "NEK3(h)": {"target": "NEK3(h) (Homo sapiens, UniProt P51956)", "sequence (P51956 whole entry)": "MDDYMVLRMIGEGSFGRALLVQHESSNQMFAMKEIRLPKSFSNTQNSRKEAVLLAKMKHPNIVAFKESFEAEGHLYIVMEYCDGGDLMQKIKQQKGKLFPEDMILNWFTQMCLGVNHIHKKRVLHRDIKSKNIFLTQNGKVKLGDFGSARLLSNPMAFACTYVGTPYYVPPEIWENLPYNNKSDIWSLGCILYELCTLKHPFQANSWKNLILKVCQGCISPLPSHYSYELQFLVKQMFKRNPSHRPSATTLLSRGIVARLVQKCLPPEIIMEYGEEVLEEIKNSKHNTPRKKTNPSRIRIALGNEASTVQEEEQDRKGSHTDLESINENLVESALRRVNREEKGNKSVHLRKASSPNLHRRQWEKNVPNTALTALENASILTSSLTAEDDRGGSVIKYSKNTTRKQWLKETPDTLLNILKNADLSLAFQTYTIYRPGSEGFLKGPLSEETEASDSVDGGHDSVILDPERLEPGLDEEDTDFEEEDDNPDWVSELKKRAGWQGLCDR", "procedure,_shortened": "as §1"}, "NLK": {"target": "NLK (Homo sapiens, UniProt Q9UBE8)", "procedure,_shortened": "as §1"}, "PI 3-Kinaseδ(h)": {"target": "T5, PI 3-Kinaseδ(h) (Homo sapiens, UniProt O00329)", "T5 construct": "gene PIK3CD", "procedure,_shortened": "as §1"}, "PKBß(h)": {"target": "T6, PKBß(h) (Homo sapiens, UniProt P31751)", "T6 construct": "gene AKT2", "procedure,_shortened": "as §1"}, "PKCζ(h)": {"target": "T7, PKCζ(h) (Homo sapiens, UniProt Q05513)", "T7 construct": "gene PRKCZ", "T7 sequence (Q05513 whole entry)": "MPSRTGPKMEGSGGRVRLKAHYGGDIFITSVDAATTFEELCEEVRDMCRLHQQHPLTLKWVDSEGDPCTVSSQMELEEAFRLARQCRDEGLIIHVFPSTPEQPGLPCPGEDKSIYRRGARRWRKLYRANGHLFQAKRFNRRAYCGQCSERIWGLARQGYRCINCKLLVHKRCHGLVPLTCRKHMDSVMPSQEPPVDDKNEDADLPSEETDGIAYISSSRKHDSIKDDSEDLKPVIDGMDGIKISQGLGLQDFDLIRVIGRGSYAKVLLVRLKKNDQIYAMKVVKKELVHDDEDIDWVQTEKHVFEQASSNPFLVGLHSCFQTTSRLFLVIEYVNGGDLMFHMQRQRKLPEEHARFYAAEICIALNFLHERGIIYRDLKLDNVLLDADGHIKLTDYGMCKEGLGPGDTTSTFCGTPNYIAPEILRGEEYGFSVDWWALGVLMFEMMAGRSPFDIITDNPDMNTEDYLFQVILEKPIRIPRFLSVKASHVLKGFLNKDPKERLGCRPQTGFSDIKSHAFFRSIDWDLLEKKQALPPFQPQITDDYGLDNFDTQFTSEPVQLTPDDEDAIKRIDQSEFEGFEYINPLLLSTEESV", "procedure,_shortened": "as §1"}, "PKCθ(h)": {"target": "T8, PKCθ(h) (Homo sapiens, UniProt Q04759)", "T8 construct": "gene PRKCQ", "T8 sequence (Q04759 whole entry)": "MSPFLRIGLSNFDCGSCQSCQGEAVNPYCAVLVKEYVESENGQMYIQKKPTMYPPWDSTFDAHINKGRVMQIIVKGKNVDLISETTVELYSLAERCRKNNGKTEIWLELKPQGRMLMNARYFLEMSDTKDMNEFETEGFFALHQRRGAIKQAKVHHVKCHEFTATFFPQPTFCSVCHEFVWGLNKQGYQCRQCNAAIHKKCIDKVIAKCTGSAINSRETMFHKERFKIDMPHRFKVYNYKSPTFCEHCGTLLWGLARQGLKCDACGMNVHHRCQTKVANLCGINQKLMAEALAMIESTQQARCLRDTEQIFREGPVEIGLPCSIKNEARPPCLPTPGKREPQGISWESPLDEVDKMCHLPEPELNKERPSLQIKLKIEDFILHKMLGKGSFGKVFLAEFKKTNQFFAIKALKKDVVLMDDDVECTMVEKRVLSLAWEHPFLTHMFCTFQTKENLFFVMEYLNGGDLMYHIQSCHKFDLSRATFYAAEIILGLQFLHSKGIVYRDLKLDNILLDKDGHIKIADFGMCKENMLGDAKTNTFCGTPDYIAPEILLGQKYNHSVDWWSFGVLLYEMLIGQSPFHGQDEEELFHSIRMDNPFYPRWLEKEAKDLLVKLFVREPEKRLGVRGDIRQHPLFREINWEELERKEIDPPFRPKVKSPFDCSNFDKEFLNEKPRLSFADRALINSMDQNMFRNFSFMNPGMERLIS", "procedure,_shortened": "as §1"}, "Pim-2": {"target": "T9, Pim-2 (Homo sapiens, UniProt Q9P1W9)", "T9 construct": "gene PIM2", "T9 sequence (Q9P1W9 whole entry)": "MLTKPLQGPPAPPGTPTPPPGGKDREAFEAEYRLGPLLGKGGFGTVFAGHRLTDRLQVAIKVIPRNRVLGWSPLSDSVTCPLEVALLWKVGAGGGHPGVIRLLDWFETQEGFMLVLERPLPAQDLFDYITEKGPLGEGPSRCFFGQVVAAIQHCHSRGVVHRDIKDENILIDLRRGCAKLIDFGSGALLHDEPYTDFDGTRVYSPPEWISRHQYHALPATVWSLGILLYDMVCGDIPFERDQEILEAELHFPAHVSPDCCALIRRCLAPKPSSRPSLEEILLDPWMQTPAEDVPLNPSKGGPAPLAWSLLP", "procedure,_shortened": "as §1"}, "SGK2(h)": {"target": "SGK2(h) (Homo sapiens, UniProt Q9HBY8)", "sequence (Q9HBY8 whole entry)": "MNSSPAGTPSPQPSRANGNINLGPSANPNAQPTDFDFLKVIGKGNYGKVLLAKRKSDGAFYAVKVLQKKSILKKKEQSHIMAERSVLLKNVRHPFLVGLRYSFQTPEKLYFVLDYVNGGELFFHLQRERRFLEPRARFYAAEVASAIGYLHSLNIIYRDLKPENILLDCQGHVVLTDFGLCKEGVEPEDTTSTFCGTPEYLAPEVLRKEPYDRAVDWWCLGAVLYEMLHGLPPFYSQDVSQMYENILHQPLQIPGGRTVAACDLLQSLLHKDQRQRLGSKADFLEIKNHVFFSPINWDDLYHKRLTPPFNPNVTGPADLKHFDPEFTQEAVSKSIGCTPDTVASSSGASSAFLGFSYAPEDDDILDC", "procedure,_shortened": "as §1"}, "Snk(h)": {"target": "T10, Snk(h) (Homo sapiens, UniProt Q9NYY3)", "T10 construct": "gene PLK2", "T10 sequence (Q9NYY3 whole entry)": "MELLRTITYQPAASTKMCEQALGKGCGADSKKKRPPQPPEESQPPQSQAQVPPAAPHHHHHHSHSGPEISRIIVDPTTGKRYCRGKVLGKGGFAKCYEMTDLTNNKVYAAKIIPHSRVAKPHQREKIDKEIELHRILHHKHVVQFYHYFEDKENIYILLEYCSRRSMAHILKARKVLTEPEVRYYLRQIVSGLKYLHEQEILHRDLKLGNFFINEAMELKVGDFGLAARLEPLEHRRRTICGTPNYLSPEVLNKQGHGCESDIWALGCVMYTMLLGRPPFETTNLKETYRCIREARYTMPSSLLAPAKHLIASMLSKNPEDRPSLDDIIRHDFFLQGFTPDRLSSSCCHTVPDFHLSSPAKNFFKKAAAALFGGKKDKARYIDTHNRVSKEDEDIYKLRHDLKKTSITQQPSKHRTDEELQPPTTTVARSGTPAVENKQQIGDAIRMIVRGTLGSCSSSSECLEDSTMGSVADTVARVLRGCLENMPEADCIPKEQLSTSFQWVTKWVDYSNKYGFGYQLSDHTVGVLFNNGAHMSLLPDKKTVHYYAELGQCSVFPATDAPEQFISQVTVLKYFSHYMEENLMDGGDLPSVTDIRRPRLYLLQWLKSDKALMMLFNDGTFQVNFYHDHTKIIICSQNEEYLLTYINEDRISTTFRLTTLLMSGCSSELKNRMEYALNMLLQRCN", "procedure,_shortened": "as §1"}, "cSRC(h)": {"target": "T11, cSRC(h) (Homo sapiens, UniProt P12931)", "T11 construct": "gene SRC", "T11 sequence (P12931 whole entry)": "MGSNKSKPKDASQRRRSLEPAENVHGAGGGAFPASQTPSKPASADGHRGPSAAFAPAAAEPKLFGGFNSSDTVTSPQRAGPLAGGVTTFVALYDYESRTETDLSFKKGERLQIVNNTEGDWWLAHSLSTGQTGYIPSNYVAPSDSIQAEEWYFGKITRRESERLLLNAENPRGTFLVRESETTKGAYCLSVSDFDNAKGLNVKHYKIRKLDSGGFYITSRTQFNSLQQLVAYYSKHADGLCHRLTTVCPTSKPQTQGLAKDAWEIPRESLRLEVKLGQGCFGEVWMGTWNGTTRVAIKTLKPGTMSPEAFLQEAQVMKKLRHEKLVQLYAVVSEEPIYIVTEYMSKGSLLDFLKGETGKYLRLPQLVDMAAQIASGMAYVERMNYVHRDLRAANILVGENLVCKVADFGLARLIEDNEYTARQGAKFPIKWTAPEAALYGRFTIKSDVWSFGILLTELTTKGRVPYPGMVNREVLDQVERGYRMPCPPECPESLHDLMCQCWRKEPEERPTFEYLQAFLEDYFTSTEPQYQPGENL", "procedure,_shortened": "as §1"}},
  "data": [
    {"compound": "Oc1ccc(/C=C/c2cc(O)cc(O)c2)cc1", "note": "[Res, resveratrol]", "values": [
      {"measurement": "remaining activity at 20 µM", "setting": "ALK4(h)", "result": "110 ± 3", "unit": "%"},
      {"measurement": "remaining activity at 20 µM", "setting": "CDK2/cyclinA(h)", "result": "80 ± 1", "unit": "%"},
      {"measurement": "remaining activity at 20 µM", "setting": "CDK6/cyclinD3(h)", "result": "55 ± 2", "unit": "%"},
      {"measurement": "remaining activity at 20 µM", "setting": "EGFR(h)", "result": "90 ± 5", "unit": "%"},
      {"measurement": "remaining activity at 20 µM", "setting": "Flt1(h)", "result": "52 ± 1", "unit": "%"},
      {"measurement": "remaining activity at 20 µM", "setting": "JNK1α1(h)", "result": "89 ± 5", "unit": "%"},
      {"measurement": "remaining activity at 20 µM", "setting": "MEK1(h)", "result": "110 ± 5", "unit": "%"},
      {"measurement": "remaining activity at 20 µM", "setting": "MSK2(h)", "result": "60 ± 1", "unit": "%"},
      {"measurement": "remaining activity at 20 µM", "setting": "NEK3(h)", "result": "96 ± 8", "unit": "%"},
      {"measurement": "remaining activity at 20 µM", "setting": "NLK", "result": "30 ± 2", "unit": "%"},
      {"measurement": "remaining activity at 20 µM", "setting": "PI 3-Kinaseδ(h)", "result": "106 ± 1", "unit": "%"},
      {"measurement": "remaining activity at 20 µM", "setting": "PKBß(h)", "result": "105 ± 3", "unit": "%"},
      {"measurement": "remaining activity at 20 µM", "setting": "PKCζ(h)", "result": 89, "unit": "%"},
      {"measurement": "remaining activity at 20 µM", "setting": "PKCθ(h)", "result": "99 ± 5", "unit": "%"},
      {"measurement": "remaining activity at 20 µM", "setting": "Pim-2", "result": "14 ± 2", "unit": "%"},
      {"measurement": "remaining activity at 20 µM", "setting": "SGK2(h)", "result": "70 ± 1", "unit": "%"},
      {"measurement": "remaining activity at 20 µM", "setting": "Snk(h)", "result": "81 ± 3", "unit": "%"},
      {"measurement": "remaining activity at 20 µM", "setting": "cSRC(h)", "result": "61 ± 1", "unit": "%"}
    ]}
  ]
}
